We go through 79 compounds from the SangsterLogP compilation.

The first data set can be described thus: method code SF-AS, from Frater-Schröder, M.; Alder, S.; Zbinden, G. (1976). Neurotoxic effects of pyridoxine and analogs in rats. Proc. Eur. Soc. Toxicol, 17, 277-284. The settings on record: pH 7.4.
Consider `CCCCOCc1c(CO)cnc(C)c1O`, for which the logD (usually lipophilicity at a set pH, counting ionised and neutral species) was 1.34.

On to `CCCCN(CCCC)Cc1c(CO)cnc(C)c1O`, for which the logD was 1.69.

With `Cc1ncc(CO)c(COCCC(C)C)c1O`, the pH-dependent lipophilicity (logD) is 0.83.

For `Cc1ncc(CO)c2c1OC1=CCCCC1=C2`, the logD was found to be 1.98.

With `Cc1ncc(CO)c(Cc2ccc(N(C)C)cc2)c1O`, the logD worked out at 0.81.

Assay in another data set: not given
The settings on record: pH 7.4.
Turning to `O=C(OCc1ccc2snnc2c1)N1CCC2(CC1)C(=O)NCN2c1ccccc1`, the logD was determined as 3.4.

As for `O=C(CCc1cccc2c1OCO2)N1CCC2(CC1)C(=O)NCN2c1ccccc1`, the logD was 2.8.

In turn, `O=C(Cc1c[nH]c2ccc(Br)cc12)N1CCN(c2ccc([N+](=O)[O-])c3nonc23)CC1` yielded a pH-dependent lipophilicity (logD) of 3.

`COc1cc([N+](=O)[O-])cc(C=CC(=O)N2CCC3(CC2)C(=O)NCN3c2ccccc2)c1OC` returned a logD of 3.

Regarding `COc1cc([N+](=O)[O-])cc(CC(=O)N2CCC(n3c(=O)[nH]c4ccccc43)CC2)c1OC`, the logD was found to be 2.4.

The next data set is described as follows: method code SF-AS, from DOI: 10.1002/etc.5620180606.
Conditions: not given
Regarding `O=[N+]([O-])c1cc(S(=O)(=O)Nc2ccccc2)ccc1Nc1ccccc1`, the logP (commonly the decadic logarithm of the partition coefficient of the neutral form, usually between octanol and water) was determined as 3.62.

`Nc1c(Oc2ccccc2)c(Oc2ccccc2)c(N)c2c1C(=O)c1ccccc1C2=O`: the logP was 5.19.

In the case of `CC(=O)CCC(C#N)Nc1ccc(N=Nc2nc3ccc([N+](=O)[O-])cc3s2)cc1` (centres undefined), the logP came to 4.08.

With `Cc1c(O)c(C#N)c(C)c(N=Nc2ccc(Cl)c(Cl)c2)c1O`, the logP turned out to be 3.74.

Consider `COc1cc(/N=N/c2c(Br)cc([N+](=O)[O-])cc2[N+](=O)[O-])c(NC(C)=O)cc1N(CCOC(C)=O)CCOC(C)=O`, for which the log partition coefficient (logP) stood at 4.44.

The next data set is described as follows: method code SF-AS, from DOI: 10.1016/0048-3575(87)90152-0.
Conditions: not given
With `CCOC(C(=O)OCc1ccccc1)C(C)C` (centres undefined), the logP was 3.29.

`COC(=O)C(c1ccccc1)C(C)C` (centres undefined): the logP was determined as 3.33.

In turn, `CC(C)[C@H](Nc1ccccc1)C(=O)OCc1ccccc1` displayed a logP of 4.41.

`CC(C)CC(=O)OCc1ccccc1` yielded a logP of 3.26.

On to `CC(C)CC(=O)Oc1ccccc1`, for which the logP came to 3.18.

Assay in another data set: not given
Conditions: not given
Compound `Ic1ccc2nc(-c3ccc(-c4cnco4)cc3)cn2c1` came in with a lipophilicity (logP) of 3.64.

Regarding `CN(C)c1ccc(-c2cn3cc(I)ccc3n2)cc1`, the logP worked out at 4.03.

The compound `Ic1ccc2nc(-c3ccc(-c4cc[nH]n4)cc3)cn2c1` gave a logP of 3.2.

On to `Ic1ccc2nc(-c3ccc(-c4nccs4)cc3)cn2c1`, for which the logP was found to be 3.06.

`Ic1ccc2nc(-c3ccc(-c4ncon4)cc3)cn2c1` had a logP of 3.12.

Assay in a further data set: not given
Conditions: not given
This is another data set of the same source.
On to `CCCCCCCCc1ccc(OC(=O)Cn2ccc3cc(C(N)=O)ccc32)cc1`, for which the logP was 5.5.

Compound `O=C(Cn1ccc2cc(C(=O)O)ccc21)Oc1cccc(-c2ccccc2)c1` gave a logP of 3.1.

In turn, `NC(=O)c1ccc2c(ccn2CC(=O)Oc2ccccc2-c2ccccc2)c1` gave a logP of 2.3.

`CCCCCCCCCCOc1ccc(OC(=O)Cn2ccc3cc(C(=O)O)ccc32)cc1` showed a logP of 7.1.

Assay in another data set: not given
Conditions: not given
The source holds these as a separate data set.
Turning to `COc1ccc2c(c1)OCc1c-2oc2cc3c(cc12)C=CC(C)(C)O3`, the logP was 3.18.

As for `O=c1oc2cc(O)ccc2c2oc3cc(O)ccc3c12`, the logP came to 2.69.

`CC1(C)C=Cc2cc3c(cc2O1)OC1c2ccc(O)cc2OCC31O` (centres undefined) displayed a logP of 2.62. This logP and that of the compound before are within 0.2 log units of each other.

For the compound `Oc1ccc2c(c1)OC[C@H]1c3cc4c(cc3O[C@@H]21)OCO4`, the logP came out at 2.61. The logP values of the last two compounds are within 0.2 log units of each other.

As to `COc1ccc([C@@H]2COc3cc(O)ccc3C2)c(OC)c1`, the logP stood at 3.21.

A short description of the next data set: method code SF-AS, from DOI: 10.1139/cjpp-75-12-1362, PMID: 9534947.
Conditions: not given
Regarding `O=C(N/N=C/c1c(O)ccc2ccccc12)c1ccco1`, the logP worked out at 3.41.

`O=C(N/N=C/c1c(O)ccc2ccccc12)c1ccc(O)cc1` displayed a logP of 3.95.

On to `COc1ccc(C(=O)N/N=C\c2c(O)ccc3ccccc23)cc1`, for which the logP amounted to 4.06.

Take `CC(=O)N/N=C/c1c(O)ccc2ccccc12`: the logP was determined as 2.91.

Consider `O=C(N/N=C/c1c(O)ccc2ccccc12)c1ccc([N+](=O)[O-])cc1`, for which the logP stood at 3.58.

A further data set in a line: method code pH-metric titration, from DOI: 10.1002/(sici)1096-9063(199607)47:3<265::aid-ps416>3.0.co;2-f.
Conditions: not given
In turn, `CC(Oc1ccc(Oc2ccc(C(F)(F)F)cn2)cc1)C(=O)O` (centres undefined) displayed a logP of 3.18.

In the case of `CC(C(=O)O)N(C(=O)c1ccccc1)c1ccc(F)c(Cl)c1` (racemic), the logP came to 3.09. This logP and that of the compound before are within 0.2 log units of each other.

In turn, `CN1CCC[C@H]1c1cccnc1` gave a logP of 0.93.

Staying with this data set, now noted: pH 2.7.
On to `CC(C)C1(C)N=C(c2ncccc2C(=O)O)NC1=O` (centres undefined), for which the logD is 0.22.

Still in this data set, the particulars now being: pH 9.0.
On to `CC(Cc1ccc(C(C)(C)C)cc1)CN1C[C@@H](C)O[C@@H](C)C1` (some centres undefined), for which the logD was 4.93.

Assay in another data set: not given
Conditions: not given
This is another data set of the same source.
`CCOCn1c(Sc2ccccc2)c(CC)c(=O)[nH]c1=O` gave a logP of 2.11.

For the compound `CCOCn1c(S)nc(=O)c(CC)c1Sc1ccccc1`, the logP stood at 3.05.

`CCOCn1c(Cc2cc(C)cc(C)c2)c(CC)c(=O)[nH]c1=O` displayed a logP of 2.78.

In turn, `CCOCn1c(Cc2ccccc2)c(C(C)C)c(=O)[nH]c1=O` showed a logP of 2.35.

In turn, `CCc1c(Sc2ccccc2)n(COCc2ccccc2)c(=O)[nH]c1=O` showed a logP of 3.23.

The next data set is described as follows: method code SF-GLC, from DOI: 10.1021/es60155a010.
Conditions: not given
In turn, `CC(C)CCCCCCCOP(=O)(Oc1ccccc1)Oc1ccccc1` came in with a logP of 5.44.

Take `Cc1ccc(OP(=O)(Oc2ccc(C)cc2)Oc2ccc(C)cc2)cc1`: the logP was found to be 5.11.

`CCCCC(CC)COP(=O)(OCC(CC)CCCC)OCC(CC)CCCC` (centres undefined) returned a logP of 4.23.

`CC(C)(C)c1ccc(OP(=O)(Oc2ccccc2)Oc2ccccc2)cc1` yielded a logP of 5.12.

With `CC(C)c1ccc(OP(=O)(Oc2ccccc2)Oc2ccccc2)cc1`, the logP worked out at 5.31.

Another data set can be described thus: method code SF, from DOI: 10.1021/jm00167a034, PMID: 2329572. To be noted: pH 7.4.
As to `CC1=C(/C=C/C(C)=C/C=C/C(C)=C/C(=O)OC[C@H]2O[C@@H](n3cc(C)c(=O)[nH]c3=O)C[C@@H]2N=[N+]=[N-])C(C)(C)CCC1`, the logD worked out at 1.25.

`Cc1cn([C@H]2C[C@H](N=[N+]=[N-])[C@@H](COC(=O)CN3CCN(c4ccccc4)CC3)O2)c(=O)[nH]c1=O` had a logD of 0.96.

As to `Cc1cn([C@H]2C[C@H](N=[N+]=[N-])[C@@H](COC(=O)CN3CCOCC3)O2)c(=O)[nH]c1=O`, the logD amounted to 0.34.

On to `Cc1cn([C@H]2C[C@H](N=[N+]=[N-])[C@@H](COC(=O)C3=CN(C)C=CC3)O2)c(=O)[nH]c1=O`, for which the logD stood at 0.86.

Take `Cc1cn(C2CC(N=[N+]=[N-])C(COC(=O)C(N)Cc3ccccc3)O2)c(=O)[nH]c1=O` (centres undefined): the logD was 0.52.

The nature of a further data set: method code SF, from DOI: 10.1016/j.bcp.2004.09.021, PMID: 15627482. The settings on record: pH 7.0.
In turn, `CCCCC1(C(=O)OC(C)(C)C)CCC=[N+]1[O-]` (centres undefined) had a logD of 1.36.

The compound `CCCCC1(C(=O)OC(C)C)CCC=[N+]1[O-]` (centres undefined) registered a logD of 1.07.

`CCCCOC(=O)C1(CCCC)CCC=[N+]1[O-]` (centres undefined) yielded a logD of 1.75.

As for `CCCCC1(C(=O)OCC)CCC=[N+]1[O-]` (centres undefined), the logD turned out to be 0.69.

With `CCCCC1(C(=O)OCC)C(CC)C(C)C=[N+]1[O-]` (centres undefined), the logD was 1.01.

A short description of the next data set: method code SF, from DOI: 10.1021/jm020886c, PMID: 12852752. To be noted: pH 7.4.
`O=c1[nH]c2c(O)ccc(CCNCCCS(=O)(=O)CCCOCc3ccccc3)c2s1` gave a logD of 1.34.

In turn, `CN(CCCSCCOCCc1ccccc1)CCc1ccc(O)c2[nH]c(=O)sc12` yielded a logD of 3.53.

`CC(C)(CNCCc1ccc(O)c2[nH]c(=O)sc12)CSCCOCCc1ccccc1` returned a logD of 3.44.

Regarding `O=c1[nH]c2c(O)ccc(CCNCCCS(=O)(=O)CCOCCc3ccccc3)c2s1`, the logD came to 1.13.

`CN(CCCNCCc1ccc(O)c2[nH]c(=O)sc12)S(=O)(=O)CCCOCCc1ccccc1` gave a logD of 1.24. The logD values of the last two compounds are within 0.2 log units of each other.

Assay in the next data set: not given
Conditions: not given
The source holds these as a separate data set.
Turning to `COC(=O)CCC12C=CC(CCC(=O)OC)(OO1)c1ccccc12`, the logP was found to be 2.08.

The compound `COC(=O)CCC1=CC2(CCC(=O)OC)OOC1(C)c1ccccc12` (centres undefined) had a logP of 2.06.

In turn, `COC(=O)CCC12C=CC(C)(OO1)c1ccccc12` (centres undefined) had a logP of 2.13. The logP values of the last two compounds are within 0.2 log units of each other.

In the case of `CC12C=CC(CCS(N)(=O)=O)(OO1)c1ccccc12` (centres undefined), the logP worked out at 1.66.

`CC12C=CC(CCC(=O)O)(OO1)c1ccccc12` (centres undefined) returned a logP of 1.19.

The nature of another data set: from Jayashree, Bs.; Sahu, A.; MM, S.; Venugopala, K. (2006). Synthesis, characterization and determination of partition coefficient of some triazolo thiadiazinyl chlorocoumarin derivatives for their …. To be noted: pH 7.4.
Turning to `O=c1oc2ccc(Cl)cc2cc1C1=Nn2c(nnc2-c2ccncc2)SC1`, the logD is 1.18.

As for `O=c1oc2ccc(Cl)cc2cc1C1=Nn2c(nnc2-c2ccc(Br)cc2)SC1`, the logD was 1.51.

For the compound `O=c1oc2ccc(Cl)cc2cc1C1=Nn2c(COc3ccc(Cl)cc3)nnc2SC1`, the log distribution coefficient (logD) is 1.33.

In the case of `O=c1oc2ccc(Cl)cc2cc1C1=Nn2c(nnc2-c2ccccc2Cl)SC1`, the logD came to 1.53.

`O=c1oc2ccc(Cl)cc2cc1C1=Nn2c(nnc2-c2ccc(Cl)cc2)SC1` had a logD of 1.49.
